According to the NIST ThermoML archive (doi:10.1016/j.fluid.2010.10.028):

Test: xn = mol fraction of the nth substance listed
Conditions: Liquid, Vibrating tube method

CC(C)=O [acetone] + CCCCCCC
Conditions | mass density [kg/m3]
417.19 K, 24970 kPa, x1 = 0.4 | 667.12
417.19 K, 24970 kPa, x1 = 0.8992 | 667.12
417.19 K, 29860 kPa, x1 = 0.801 | 662.11
417.19 K, 29960 kPa, x1 = 0.4 | 675.37
417.19 K, 29960 kPa, x1 = 0.8992 | 675.37
417.19 K, 34850 kPa, x1 = 0.801 | 669.57
417.19 K, 34950 kPa, x1 = 0.4 | 682.9
417.19 K, 34950 kPa, x1 = 0.8992 | 682.9
417.19 K, 39860 kPa, x1 = 0.801 | 676.46
417.19 K, 39930 kPa, x1 = 0.4 | 689.8
417.19 K, 39930 kPa, x1 = 0.8992 | 689.8
417.19 K, 44860 kPa, x1 = 0.801 | 682.8
417.19 K, 44890 kPa, x1 = 0.7024 | 672.51
417.19 K, 49870 kPa, x1 = 0.801 | 688.76
417.19 K, 49890 kPa, x1 = 0.4 | 702.22
417.19 K, 49890 kPa, x1 = 0.7024 | 678.35
417.19 K, 49890 kPa, x1 = 0.8992 | 702.22
417.19 K, 54860 kPa, x1 = 0.801 | 694.3
417.19 K, 54870 kPa, x1 = 0.4 | 707.85
417.19 K, 54870 kPa, x1 = 0.8992 | 707.85
417.19 K, 54880 kPa, x1 = 0.7024 | 683.78
417.19 K, 59860 kPa, x1 = 0.7024 | 688.95
417.19 K, 59870 kPa, x1 = 0.801 | 699.57
417.19 K, 64830 kPa, x1 = 0.801 | 704.51
417.19 K, 69830 kPa, x1 = 0.801 | 709.22
417.19 K, 74920 kPa, x1 = 0.801 | 713.82
417.19 K, 79790 kPa, x1 = 0.7024 | 707.06
417.19 K, 79800 kPa, x1 = 0.4 | 732.02
417.19 K, 79800 kPa, x1 = 0.8992 | 732.02
417.19 K, 79910 kPa, x1 = 0.801 | 718.11
417.19 K, 84890 kPa, x1 = 0.801 | 722.24
417.19 K, 89750 kPa, x1 = 0.4 | 740.27
417.19 K, 89750 kPa, x1 = 0.8992 | 740.27
417.19 K, 94870 kPa, x1 = 0.801 | 730.03
417.19 K, 104800 kPa, x1 = 0.801 | 737.2
417.19 K, 114770 kPa, x1 = 0.801 | 743.97
417.19 K, 119800 kPa, x1 = 0.7024 | 735.65
417.19 K, 119830 kPa, x1 = 0.801 | 747.24
417.19 K, 124820 kPa, x1 = 0.7024 | 738.72
417.19 K, 124830 kPa, x1 = 0.801 | 750.39
417.19 K, 129810 kPa, x1 = 0.7024 | 741.7
417.19 K, 129840 kPa, x1 = 0.801 | 753.43
417.2 K, 1810 kPa, x1 = 0.7024 | 587.77
417.2 K, 4810 kPa, x1 = 0.7024 | 598.33
417.2 K, 9830 kPa, x1 = 0.7024 | 612.79
417.2 K, 14820 kPa, x1 = 0.7024 | 624.66
417.2 K, 19830 kPa, x1 = 0.7024 | 634.93
417.2 K, 24810 kPa, x1 = 0.7024 | 643.93
417.2 K, 29810 kPa, x1 = 0.7024 | 652.02
417.2 K, 34810 kPa, x1 = 0.7024 | 659.38
417.2 K, 39820 kPa, x1 = 0.7024 | 666.17
417.2 K, 44910 kPa, x1 = 0.4 | 696.21
417.2 K, 44910 kPa, x1 = 0.8992 | 696.21
417.2 K, 59870 kPa, x1 = 0.4 | 713.19
417.2 K, 59870 kPa, x1 = 0.8992 | 713.19
417.2 K, 64850 kPa, x1 = 0.4 | 718.24
417.2 K, 64850 kPa, x1 = 0.7024 | 693.8
417.2 K, 64850 kPa, x1 = 0.8992 | 718.24
417.2 K, 69820 kPa, x1 = 0.4 | 723.05
417.2 K, 69820 kPa, x1 = 0.8992 | 723.05
417.2 K, 69830 kPa, x1 = 0.7024 | 698.42
417.2 K, 74810 kPa, x1 = 0.4 | 727.63
417.2 K, 74810 kPa, x1 = 0.8992 | 727.63
417.2 K, 74820 kPa, x1 = 0.7024 | 702.83
417.2 K, 84780 kPa, x1 = 0.4 | 736.22
417.2 K, 84780 kPa, x1 = 0.7024 | 711.1
417.2 K, 84780 kPa, x1 = 0.8992 | 736.22
417.2 K, 89760 kPa, x1 = 0.7024 | 714.98
417.2 K, 89890 kPa, x1 = 0.801 | 726.21
417.2 K, 94720 kPa, x1 = 0.4 | 744.15
417.2 K, 94720 kPa, x1 = 0.8992 | 744.15
417.2 K, 94740 kPa, x1 = 0.7024 | 718.71
417.2 K, 99690 kPa, x1 = 0.4 | 747.91
417.2 K, 99690 kPa, x1 = 0.8992 | 747.91
417.2 K, 99840 kPa, x1 = 0.7024 | 722.39
417.2 K, 99840 kPa, x1 = 0.801 | 733.67
417.2 K, 104650 kPa, x1 = 0.4 | 751.51
417.2 K, 104650 kPa, x1 = 0.8992 | 751.51
417.2 K, 104810 kPa, x1 = 0.7024 | 725.87
417.2 K, 109620 kPa, x1 = 0.4 | 755.03
417.2 K, 109620 kPa, x1 = 0.8992 | 755.03
417.2 K, 109800 kPa, x1 = 0.801 | 740.64
417.2 K, 109810 kPa, x1 = 0.7024 | 729.22
417.2 K, 114590 kPa, x1 = 0.4 | 758.45
417.2 K, 114590 kPa, x1 = 0.8992 | 758.45
417.2 K, 114820 kPa, x1 = 0.7024 | 732.49
417.2 K, 119550 kPa, x1 = 0.4 | 761.72
417.2 K, 119550 kPa, x1 = 0.8992 | 761.72
417.2 K, 124810 kPa, x1 = 0.4 | 765.12
417.2 K, 124810 kPa, x1 = 0.8992 | 765.12
417.2 K, 129820 kPa, x1 = 0.4 | 768.24
417.2 K, 129820 kPa, x1 = 0.8992 | 768.24
